Results: the supplement of paper PMC10627819

Key:
S. pneumoniae D39V [1] = test: Bliss interaction score (quartile over a dose matrix) (fitness difference); higher = more antagonism (negative = synergy)
Method in brief: (§1)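 The Bliss score is observed minus expected fitness, where expected fitness is the product of the single-drug fitness values inferred from the combination data. Fitness is the OD595 at the onset of stationary phase over the plate's robust no-drug mean, capped at 1. Scores are summarised by quartiles over technical, biological and donor/recipient replicates.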

S. aureus DSM 20231 [2] = test: as above
Method in brief: as §1

B. subtilis 168 [3] = test: as above
Method in brief: as §1

S. aureus Newman [4] = test: as above
Method in brief: as §1

S. pneumoniae D39V [5] = test: fitness (endpoint OD595 vs no drug) (fraction); higher = more growth
Method in brief: (§2)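 Fitness was measured as bacterial growth in 384-well plates inoculated at OD595 0.01 (30 µl, or 55 µl for S. pneumoniae). Media were TSB, LB Lennox or CY, at 37 °C. OD595 was read every 30 min for 14 h and background-subtracted against the first reading. Fitness is OD595 at the transition into stationary phase divided by the robust mean of no-drug control wells, capped at 1.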

B. subtilis 168 [6] = test: as above
Method in brief: as §2

S. aureus Newman [7] = test: as above
Method in brief: as §2

S. aureus DSM 20231 [8] = test: as above
Method in brief: as §2
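For Bliss interaction score (quartile over a dose matrix) in this document: first quartile when negative (synergy) and third quartile when positive (antagonism).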
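For fitness (endpoint OD595 vs no drug) in this document: OD595 on entry to stationary phase over no-drug wells; at most 1.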

COc1cccc2c1C(=O)c1c(O)c3c(c(O)c1C2=O)C[C@@](O)(C(=O)CO)C[C@@H]3O[C@H]1C[C@H](N)[C@H](O)[C@H](C)O1 [Doxorubicin] + CN(C)c1cc(NC(=O)CNC(C)(C)C)c(O)c2c1C[C@H]1C[C@H]3[C@H](N(C)C)C(O)=C(C(N)=O)C(=O)[C@@]3(O)C(O)=C1C2=O [Tigecycline]
Details | Bliss interaction score
B. subtilis 168 [3] | 0.0886
S. aureus DSM 20231 [2] | -0.0419
S. aureus Newman [4] | -0.0645
S. pneumoniae D39V [1] | 0.0654

fitness
Details | first compound 0.25 µg/mL | first compound 0.5 µg/mL | first compound 0.625 µg/mL | first compound 1 µg/mL | first compound 1.25 µg/mL | first compound 2.5 µg/mL
B. subtilis 168 [6], partner 0.039 µg/mL | – | – | ≥ 1 | – | 0.952 | 0.65
B. subtilis 168 [6], partner 0.078 µg/mL | – | – | 0.868 | – | 0.939 | 0.609
B. subtilis 168 [6], partner 0.156 µg/mL | – | – | 0.919 | – | 0.879 | 0.693
S. aureus Newman [7], partner 0.039 µg/mL | – | – | 0.783 | – | 0.761 | 0.71
S. aureus Newman [7], partner 0.078 µg/mL | – | – | 0.822 | – | 0.821 | 0.742
S. aureus Newman [7], partner 0.156 µg/mL | – | – | 0.828 | – | 0.811 | 0.744
S. pneumoniae D39V [5], partner 0.325 µg/mL | 0.927 | 0.975 | – | 0.931 | – | –
S. pneumoniae D39V [5], partner 0.65 µg/mL | 0.928 | 0.94 | – | 0.89 | – | –
S. pneumoniae D39V [5], partner 1.3 µg/mL | 0.926 | 0.961 | – | 0.884 | – | –
S. pneumoniae D39V [5], partner 2.6 µg/mL | 0.874 | 0.912 | – | 0.79 | – | –

fitness, B. subtilis 168 [6], one replicate
Details | first compound 0.625 µg/mL | first compound 1.25 µg/mL | first compound 2.5 µg/mL
partner 0.125 µg/mL | 0.963 | 0.984 | 0.973
partner 0.25 µg/mL | 0.89 | 0.892 | 0.916
partner 0.5 µg/mL | 0.86 | 0.913 | 0.925

COc1cccc2c1C(=O)c1c(O)c3c(c(O)c1C2=O)C[C@@](O)(C(=O)CO)C[C@@H]3O[C@H]1C[C@H](N)[C@H](O)[C@H](C)O1 [Doxorubicin] + CN[C@@H]1[C@H](O[C@H]2[C@H](O[C@H]3[C@H](O)[C@@H](O)[C@H](N=C(N)N)[C@@H](O)[C@@H]3N=C(N)N)O[C@@H](C)[C@]2(O)C=O)O[C@@H](CO)[C@H](O)[C@H]1O [Streptomycin]
Details | Bliss interaction score
B. subtilis 168 [3] | -0.355
S. aureus DSM 20231 [2] | -0.0832
S. aureus Newman [4] | -0.043
S. pneumoniae D39V [1] | 0.0825

fitness
Details | partner 1 µg/mL | partner 2 µg/mL | partner 4 µg/mL | partner 8 µg/mL
B. subtilis 168 [6], first compound 0.625 µg/mL | – | 0.869 | – | 0.0284
B. subtilis 168 [6], first compound 1.25 µg/mL | – | – | – | 0.0203
B. subtilis 168 [6], first compound 2.5 µg/mL | – | 0.0556 | 0.0219 | 0.0198
S. aureus Newman [7], first compound 0.625 µg/mL | 0.791 | 0.788 | – | –
S. aureus Newman [7], first compound 1.25 µg/mL | 0.769 | 0.746 | – | –
S. aureus Newman [7], first compound 2.5 µg/mL | 0.75 | 0.742 | – | –
S. pneumoniae D39V [5], first compound 0.25 µg/mL | – | 0.898 | 0.918 | 0.892
S. pneumoniae D39V [5], first compound 0.5 µg/mL | – | 0.935 | 0.907 | 0.901
S. pneumoniae D39V [5], first compound 1 µg/mL | – | 0.874 | 0.875 | 0.858

S. pneumoniae D39V [5], partner 16 µg/mL, one replicate
Details | fitness
first compound 0.25 µg/mL | 0.817
first compound 0.5 µg/mL | 0.761
first compound 1 µg/mL | 0.558

COc1cccc2c1C(=O)c1c(O)c3c(c(O)c1C2=O)C[C@@](O)(C(=O)CO)C[C@@H]3O[C@H]1C[C@H](N)[C@H](O)[C@H](C)O1 [Doxorubicin] + COc1cc(Cc2cnc(N)nc2N)cc(OC)c1OC [Trimethoprim]
Details | Bliss interaction score
B. subtilis 168 [3] | -0.0392
S. aureus DSM 20231 [2] | -0.0539
S. aureus Newman [4] | 0.0879
S. pneumoniae D39V [1] | -0.179

fitness
Details | partner 0.125 µg/mL | partner 0.25 µg/mL | partner 0.5 µg/mL | partner 1 µg/mL
B. subtilis 168 [6], first compound 0.625 µg/mL | 0.628 | 0.489 | 0.435 | –
B. subtilis 168 [6], first compound 1.25 µg/mL | 0.582 | – | 0.421 | –
B. subtilis 168 [6], first compound 2.5 µg/mL | 0.469 | 0.393 | 0.37 | –
S. aureus DSM 20231 [8], first compound 0.625 µg/mL | 0.683 | 0.557 | 0.175 | 0.0314
S. aureus DSM 20231 [8], first compound 1.25 µg/mL | 0.742 | 0.56 | 0.0868 | 0.0177
S. aureus DSM 20231 [8], first compound 2.5 µg/mL | 0.728 | 0.523 | 0.0302 | 0.0244

fitness, B. subtilis 168 [6], one replicate
Details | partner 0.1 µg/mL | partner 0.2 µg/mL | partner 0.4 µg/mL | partner 1 µg/mL | partner 2 µg/mL
first compound 0.625 µg/mL | 0.868 | 0.699 | 0.524 | 0.278 | 0.222
first compound 1.25 µg/mL | 0.849 | 0.646 | 0.504 | 0.228 | 0.152
first compound 2.5 µg/mL | 0.799 | 0.559 | 0.391 | 0.126 | 0.0762

C[C@@H]1O[C@@H]1P(=O)(O)O [Fosfomycin] + CC(C1CCC(C(O1)OC2C(CC(C(C2O)OC3C(C(C(CO3)(C)O)NC)O)N)N)N)NC [Gentamicin]
main component drawn
Details | Bliss interaction score
B. subtilis 168 [3] | 0.152
S. aureus DSM 20231 [2] | -0.0757
S. aureus Newman [4] | 0.152
S. pneumoniae D39V [1] | -0.0335

main component drawn
Details | fitness
B. subtilis 168 [6], first compound 1.562 µg/mL, partner 0.0625 µg/mL | 0.757
B. subtilis 168 [6], first compound 3.124 µg/mL, partner 0.0625 µg/mL | 0.629
S. aureus Newman [7], first compound 0.781 µg/mL, partner 0.5 µg/mL | 0.705
S. aureus Newman [7], first compound 0.781 µg/mL, partner 1 µg/mL | 0.802
S. aureus Newman [7], first compound 0.781 µg/mL, partner 2 µg/mL | 0.796
S. aureus Newman [7], first compound 1.562 µg/mL, partner 0.5 µg/mL | 0.585
S. aureus Newman [7], first compound 1.562 µg/mL, partner 1 µg/mL | 0.65
S. aureus Newman [7], first compound 1.562 µg/mL, partner 2 µg/mL | 0.666
S. aureus Newman [7], first compound 3.124 µg/mL, partner 0.5 µg/mL | 0.422
S. aureus Newman [7], first compound 3.124 µg/mL, partner 1 µg/mL | 0.455
S. aureus Newman [7], first compound 3.124 µg/mL, partner 2 µg/mL | 0.464
S. pneumoniae D39V [5], first compound 1.25 µg/mL, partner 2 µg/mL | 0.96
S. pneumoniae D39V [5], first compound 1.25 µg/mL, partner 4 µg/mL | 0.944
S. pneumoniae D39V [5], first compound 1.25 µg/mL, partner 8 µg/mL | 0.948
S. pneumoniae D39V [5], first compound 2.5 µg/mL, partner 2 µg/mL | 0.941
S. pneumoniae D39V [5], first compound 2.5 µg/mL, partner 4 µg/mL | 0.896
S. pneumoniae D39V [5], first compound 2.5 µg/mL, partner 8 µg/mL | 0.876
S. pneumoniae D39V [5], first compound 5 µg/mL, partner 2 µg/mL | 0.715
S. pneumoniae D39V [5], first compound 5 µg/mL, partner 4 µg/mL | 0.674
S. pneumoniae D39V [5], first compound 5 µg/mL, partner 8 µg/mL | 0.72

fitness, S. aureus Newman [7], one replicate, main component drawn
Details | first compound 0.781 µg/mL | first compound 1.562 µg/mL | first compound 3.124 µg/mL
partner 0.375 µg/mL | 0.589 | 0.554 | 0.236
partner 0.75 µg/mL | 0.596 | 0.571 | 0.232
partner 1.5 µg/mL | 0.537 | 0.447 | 0.119

C[C@@H]1O[C@@H]1P(=O)(O)O [Fosfomycin] + CN(C)c1cc(NC(=O)CNC(C)(C)C)c(O)c2c1C[C@H]1C[C@H]3[C@H](N(C)C)C(O)=C(C(N)=O)C(=O)[C@@]3(O)C(O)=C1C2=O [Tigecycline]
Details | Bliss interaction score
B. subtilis 168 [3] | -0.0396
S. aureus DSM 20231 [2] | 0.044
S. aureus Newman [4] | -0.0631
S. pneumoniae D39V [1] | 0.0555

Details | fitness
B. subtilis 168 [6], first compound 1.562 µg/mL, partner 0.039 µg/mL | 0.76
B. subtilis 168 [6], first compound 1.562 µg/mL, partner 0.078 µg/mL | 0.746
B. subtilis 168 [6], first compound 1.562 µg/mL, partner 0.156 µg/mL | 0.713
B. subtilis 168 [6], first compound 3.124 µg/mL, partner 0.039 µg/mL | 0.655
B. subtilis 168 [6], first compound 3.124 µg/mL, partner 0.078 µg/mL | 0.598
B. subtilis 168 [6], first compound 3.124 µg/mL, partner 0.156 µg/mL | 0.595
B. subtilis 168 [6], first compound 6.248 µg/mL, partner 0.039 µg/mL | 0.52
B. subtilis 168 [6], first compound 6.248 µg/mL, partner 0.078 µg/mL | 0.488
B. subtilis 168 [6], first compound 6.248 µg/mL, partner 0.156 µg/mL | 0.492
S. aureus Newman [7], first compound 0.781 µg/mL, partner 0.039 µg/mL | 0.558
S. aureus Newman [7], first compound 0.781 µg/mL, partner 0.078 µg/mL | 0.57
S. aureus Newman [7], first compound 0.781 µg/mL, partner 0.156 µg/mL | 0.593
S. aureus Newman [7], first compound 1.562 µg/mL, partner 0.039 µg/mL | 0.47
S. aureus Newman [7], first compound 1.562 µg/mL, partner 0.078 µg/mL | 0.504
S. aureus Newman [7], first compound 1.562 µg/mL, partner 0.156 µg/mL | 0.518
S. aureus Newman [7], first compound 3.124 µg/mL, partner 0.039 µg/mL | 0.177
S. aureus Newman [7], first compound 3.124 µg/mL, partner 0.078 µg/mL | 0.188
S. aureus Newman [7], first compound 3.124 µg/mL, partner 0.156 µg/mL | 0.184
S. pneumoniae D39V [5], first compound 1.25 µg/mL, partner 0.325 µg/mL | 0.929
S. pneumoniae D39V [5], first compound 1.25 µg/mL, partner 0.65 µg/mL | 0.921
S. pneumoniae D39V [5], first compound 1.25 µg/mL, partner 1.3 µg/mL | 0.942
S. pneumoniae D39V [5], first compound 1.25 µg/mL, partner 2.6 µg/mL | 0.921
S. pneumoniae D39V [5], first compound 2.5 µg/mL, partner 0.325 µg/mL | 0.953
S. pneumoniae D39V [5], first compound 2.5 µg/mL, partner 0.65 µg/mL | 0.912
S. pneumoniae D39V [5], first compound 2.5 µg/mL, partner 1.3 µg/mL | 0.92
S. pneumoniae D39V [5], first compound 2.5 µg/mL, partner 2.6 µg/mL | 0.86
S. pneumoniae D39V [5], first compound 5 µg/mL, partner 0.325 µg/mL | 0.796
S. pneumoniae D39V [5], first compound 5 µg/mL, partner 0.65 µg/mL | 0.748
S. pneumoniae D39V [5], first compound 5 µg/mL, partner 1.3 µg/mL | 0.791
S. pneumoniae D39V [5], first compound 5 µg/mL, partner 2.6 µg/mL | 0.809

fitness, B. subtilis 168 [6], one replicate
Details | first compound 1.562 µg/mL | first compound 3.124 µg/mL | first compound 6.248 µg/mL
partner 0.125 µg/mL | 0.833 | 0.771 | 0.576
partner 0.25 µg/mL | 0.819 | 0.662 | 0.537
partner 0.5 µg/mL | 0.753 | 0.683 | 0.568
